Data published in patent publication US8518957B2, “Methanocarba adenosine derivatives, pharmaceutical compositions, and method of reducing intraocular pressure” (The United States of America, as represented by the …, priority 2009, dated 2013).

Tests used:
human A3AR [1] = target: T1, human A3AR (Homo sapiens, UniProt P0DMS8); assay: Radioligand binding at human A3 AR ([125I]I-AB-MECA, membranes of CHO cells); conditions: for Ki: [125I]38, CHO cells, read-out: Affinity (Ki, nM), A3
T1 construct: expressed in transfected cells
T1 sequence (P0DMS8 1-318): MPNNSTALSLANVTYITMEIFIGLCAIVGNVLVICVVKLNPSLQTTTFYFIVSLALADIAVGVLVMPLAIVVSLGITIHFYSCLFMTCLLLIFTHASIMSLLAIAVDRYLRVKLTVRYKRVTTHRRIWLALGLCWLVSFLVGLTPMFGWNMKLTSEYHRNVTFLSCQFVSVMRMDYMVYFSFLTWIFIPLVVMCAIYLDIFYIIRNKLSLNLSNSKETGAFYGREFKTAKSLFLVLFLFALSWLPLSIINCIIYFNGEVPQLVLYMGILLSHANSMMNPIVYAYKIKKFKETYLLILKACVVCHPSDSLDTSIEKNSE
Method in brief: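 Membranes came from CHO cells stably expressing hA3R, pretreated with adenosine deaminase (3 units/mL). Competition with agonist radioligand was run in 50 mM Tris-HCl pH 7.5, 10 mM MgCl2 for 60 min at 25 °C, followed by GF/B filtration and γ-counting. Ki values derived.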

human A1 AR = target: T2, human A1 AR (Homo sapiens, UniProt P30542); conditions: at 10 μM; model compounds; values from Tosh et al. and Melman et al.; cited from earlier work
T2 construct: expressed in transfected cells
T2 sequence (P30542 1-326): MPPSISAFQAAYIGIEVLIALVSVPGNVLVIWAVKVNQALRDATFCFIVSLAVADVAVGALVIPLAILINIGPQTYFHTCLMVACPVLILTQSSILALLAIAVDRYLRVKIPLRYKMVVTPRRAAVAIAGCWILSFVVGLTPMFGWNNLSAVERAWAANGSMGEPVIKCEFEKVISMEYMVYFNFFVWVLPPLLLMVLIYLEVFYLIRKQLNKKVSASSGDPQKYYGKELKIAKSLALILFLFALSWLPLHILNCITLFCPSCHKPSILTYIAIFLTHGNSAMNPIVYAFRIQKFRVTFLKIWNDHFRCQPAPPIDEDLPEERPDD

human A3AR [2] = target: T1, human A3AR; conditions: concentration 10 μM; values from Tosh et al.; cited from earlier work

Ki (human A3AR [1]) [nM]	SMILES	further results
29.4 ± 9.8	C#CCCCCC#Cc1nc(NCc2cccc(Cl)c2)c2ncn(C3C(O)C(O)C4(C(=O)NC)CC34)c2n1 (stereo not drawn) [Compound 9, (1′S, 2′R, 3′S, 4′S, 5′S)-4′-[6-(3-Chlorobenzylamino)-2-(1,7-octadiynyl)-9H-purin-9-yl]-2′,3′-dihydroxybicyclo[3.1.0]hexane-1′-carboxylic acid N-methylamide]	% inhibition, A1 (human A1 AR): (31%
10.6 ± 3.8	CNC(=O)[C@@]12C[C@@H]1[C@@H](n1cnc3c(NCc4cccc(Cl)c4)nc(C#CCCCCc4cn(-c5ccc(F)c([N+](=O)[O-])c5)nn4)nc31)[C@H](O)[C@@H]2O [Compound 11]	
87.1 ± 13.1	CNC(=O)[C@@]12C[C@@H]1[C@@H](n1cnc3c(NCc4cccc(Cl)c4)nc(C#CCCCCc4cn(-c5ccc(N)cc5)nn4)nc31)[C@H](O)[C@@H]2O [Compound 12, (1S,2R,3S,4R,5S)-4′-(6-(3-Chlorobenzylamino)-2-(6-(1-(4-amino-phenyl)-1H-1,2,3-triazol-4-yl)hex-1-ynyl)-9H-purin-9-yl)-2′,3′-dihydroxybicyclo[3.1.0]hexane-1′-carboxylic acid N-methylamide]	
180 ± 23	CNC(=O)[C@@]12C[C@@H]1[C@@H](n1cnc3c(NCc4cccc(Cl)c4)nc(C#CCCCCc4cn(-c5ccc(C(=O)O)cc5)nn4)nc31)[C@H](O)[C@@H]2O [Compound 13, (1S,2R,3S,4R,5S)-4′-(6-(3-Chlorobenzylamino)-2-(6-(1-(4-carboxyl-phenyl)-1H-1,2,3-triazol-4-yl)hex-1-ynyl)-9H-purin-9-yl)-2′,3′-dihydroxybicyclo[3.1.0]hexane-1′-carboxylic acid N-methylamide]	
9.6 ± 1.3	CNC(=O)[C@@]12C[C@@H]1[C@@H](n1cnc3c(NCc4cccc(Cl)c4)nc(C#CCCCCc4cn(-c5ccc(C(=O)CBr)cc5)nn4)nc31)[C@H](O)[C@@H]2O [Compound 14, (1S,2R,3S,4R,5S)-6-(3-Chlorobenzylamino)-4-(2-(6-(4-(2-bromoacetyl)phenyl)-1H-1,2,3-triazol-4-yphex-1-ynyl)-9H-purin-9-yl)-2′,3′-dihydroxybicyclo[3.1.0]hexane-1′-carboxylic acid N-methylamide]	
22.3 ± 1.6	CNC(=O)[C@@]12C[C@@H]1[C@@H](n1cnc3c(NCc4cccc(Cl)c4)nc(C#CCCCCc4cn(CCNC(C)=O)nn4)nc31)[C@H](O)[C@@H]2O [Compound 15, (1S,2R,3S,4R,5S)-6-(3-Chlorobenzylamino)-(2-(6-(1-(4-acetamidoethyl)-1H-1,2,3-triazol-4-yl)hex-1-ynyl)-9H-purin-9-yl)-2′,3′-dihydroxybicyclo[3.1.0]hexane-1′-carboxylic acid N-methylamide]	% Inhibition of cAMP accumulation at the hA3AR (human A3AR [2]): 93.6 ± 17.7%
47 ± 1.8	CNC(=O)[C@@]12C[C@@H]1[C@@H](n1cnc3c(NCc4cccc(Cl)c4)nc(C#CCCCCc4cn(CCCCN)nn4)nc31)[C@H](O)[C@@H]2O [Compound 16, (1S,2R,3S,4R,5S)-6-(3-Chlorobenzylamino)-(2-(6-(1-(4-aminobutyl)-1H-1,2,3-triazol-4-yl)hex-1-ynyl)-9H-purin-9-yl)-2′,3′-dihydroxybicyclo[3.1.0]hexane-1′-carboxylic acid N-methylamide]	
89.5 ± 12.6	CNC(=O)[C@@]12C[C@@H]1[C@@H](n1cnc3c(NCc4cccc(Cl)c4)nc(C#CCCCCc4cn(CCCCNC(C)=O)nn4)nc31)[C@H](O)[C@@H]2O [Compound 17, (1S,2R,3S,4R,5S)-6-(3-Chlorobenzylamino)-(2-(6-(1-(4-acetamidobutyl)-1H-1,2,3-triazol-4-yl)hex-1-ynyl)-9H-purin-9-yl)-2′,3′-dihydroxybicyclo[3.1.0]hexane-1′-carboxylic acid N-methylamide]	
6.5 ± 0.5	CNC(=O)[C@@]12C[C@@H]1[C@@H](n1cnc3c(NCc4cccc(Cl)c4)nc(C#CCCCCc4cn(C56CC7CC(CC(C7)C5)C6)nn4)nc31)[C@H](O)[C@@H]2O [Compound 18, (1S,2R,3S,4R,5S)-6-(3-Chlorobenzylamino)-(2-(6-(1-(adamantyl)-1H-1,2,3-triazol-4-yl)hex-1-ynyl)-9H-purin-9-yl)-2′,3′-dihydroxybicyclo[3.1.0]hexane-1′-carboxylic acid N-methylamide]	selectivity for the hA3AR in comparison to the hA1 and hA2A ARs (human A3AR [1]; radioligand binding inhibition curves, figure legends): highly selective
102 ± 25	CNC(=O)[C@@]12C[C@@H]1[C@@H](n1cnc3c(NCc4cccc(Cl)c4)nc(C#CCCCCc4cn(Cc5ccc(-n6sccc6=O)cc5)nn4)nc31)[C@H](O)[C@@H]2O [Compound 19, (1S,2R,3S,4R,5S)-6-(3-Chlorobenzylamino)-(2-(1-(4-3-oxoisothiazol-2(3H)-yl)benzyl-1H-1,2,3-triazol-4-yphex-1-ynyl)-9H-purin-9-yl)-2′,3′-dihydroxybicyclo[3.1.0]hexane-β-carboxylic acid N-methylamide]	
285 ± 54	CNC(=O)[C@@]12C[C@@H]1[C@@H](n1cnc3c(NCc4cccc(Cl)c4)nc(C#CCCCCc4cn(CCCCCCNC(=O)CCCC[C@@H]5SC[C@@H]6NC(=O)N[C@@H]65)nn4)nc31)[C@H](O)[C@@H]2O [Compound 20, (1S,2R,3S,4R,5S)-6-(3-Chlorobenzylamino)-(2-(6-(1-(6-(5-(3aS,4S,6aR)-oxohexahydro-1H-thieno[3,4-d]imidazol-4-yl)pentanamido)hexyl-1H-1,2,3-triazol-4-yl)hex-1-ynyl)-9H-purin-9-yl)-2′,3′-dihydroxybicyclo[3.1.0]hexane-1′-carboxylic acid N-methylamide]	
235 ± 43	CNC(=O)[C@@]12C[C@@H]1[C@@H](n1cnc3c(NCc4cccc(Cl)c4)nc(C#CCCCCc4cn(CCCCCCC(=O)NCCCCCCNC(=O)CCCC[C@@H]5SC[C@@H]6NC(=O)N[C@@H]65)nn4)nc31)[C@H](O)[C@@H]2O [Compound 21]	
416 ± 45	CNC(=O)[C@@]12C[C@@H]1[C@@H](n1cnc3c(NCc4cccc(Cl)c4)nc(C#CCCCCc4cn(CCCCCCNC(=O)c5ccc(-c6c7ccc(=N)c(S(=O)(=O)O)c-7oc7c(S(=O)(=O)O)c(N)ccc67)c(C(=O)O)c5)nn4)nc31)[C@H](O)[C@@H]2O [Compound 23]	

SMILES	Ki (human A3AR [1]) [nM]	further results
CNC(=O)[C@@]12C[C@@H]1[C@@H](n1cnc3c(NCc4cccc(Cl)c4)nc(-c4nnn(-c5ccc(N=C=S)cc5)c4CCCCc4cn(-c5ccc(N=C=S)cc5)nn4)nc31)[C@H](O)[C@@H]2O [Compound 25, (1S,2R,3S,4R,5S)-6-(3-Chlorobenzylamino)-(2-(1,6-bis(4-isothiocyante-phenyl)-1H-bis(1,2,3-triazol-4-yl)hex-1-ynyl)-9H-purin-9-yl)-2′,3′-dihydroxybicyclo[3.1.0]hexane-1′-carboxylic acid N-methylamide]	8.8 ± 1.3	
CNC(=O)[C@@]12C[C@@H]1[C@@H](n1cnc3c(NCc4cccc(Cl)c4)nc(C#CCCCCc4cn(-c5ccc(N=C=S)cc5)nn4)nc31)[C@H](O)[C@@H]2O [Compound 26, (1S,2R,3S,4R,5S)-6-(3-Chlorobenzylamino)-(2-(6-(1-(4-isothiocyante-phenyl)-1H-1,2,3-triazol-4-yl)hex-1-ynyl)-9H-purin-9-yl)-2′,3′-dihydroxybicyclo[3.1.0]hexane-1′-carboxylic acid N-methylamide]	37.5 ± 16	
